Laboratory results: patent publication US12411142B2, “Method for measuring the trimethylamine n-oxide production capacity in an individual” (NATIONAL TAIWAN UNIVERSITY, priority 2018, dated 2025)

Assay: Pharmacokinetic study of the oral carnitine challenge test (OCCT)
Format: in vivo, human
Details: 13 volunteers
Method: Oral carnitine challenge test (OCCT): All the participants fasted overnight (>8 hours) before the OCCT. Fasting blood and spot urine samples were collected as baseline, and three tablets of L-carnitine fumarate (GNC) were then administered orally to the participants. Subsequently, the participants underwent time-series blood drawings with concurrent spot urine collections at 24 hours and 48 hours after the oral carnitine challenge. The participants were requested to provide urine samples within 2 hours of blood sample collections. All the participants were asked to avoid red meat, seafood and any medication during the period of the carnitine challenge test. The plasma and urine samples were aliquoted after centrifugation at 3000 rpm and stored in a freezer at −20° C. Ten carnitine tablets (GNC) were examined through HPLC to verify the amount of L-carnitine used in the OCCT. The mean dose of carnitine fumarate in each tablet was 693.5 (SD±63.2) mg (≈400 mg L-carnitine/tablet).
Pharmacokinetic study of plasma TMAO by oral administration of carnitine: Thirteen independent volunteers were recruited for a pharmacokinetic study of the OCCT. After the oral carnitine challenge, blood samples were collected at 4, 8, 12, 24, 36 and 48 hours. Six of the volunteers agreed to participate in the same pharmacokinetic test again 3 months later. All the volunteers signed informed consent waivers provided by the Institutional Review Board of National Taiwan University Hospital.
Plasma TMAO peaked in the interval between 24 hours and 48 hours of the OCCT: This example assumed that TMAO formation in blood occurred at approximately 24 hours of the OCCT based on the time required for bowel transit, microbial catabolism and the enzymatic reaction of hepatic FMO3 to convert the ingested carnitine into plasma TMAO. The example performed a pharmacokinetic study of the OCCT to confirm this hypothesis (FIG. 4). In the study, 13 participants received seven blood tests at indicated time points after ingestion of three tablets of L-carnitine fumarate (General Nutrition Centers (GNC), Pennsylvania, USA). […]

[1] = three tablets of L-carnitine fumarate orally

SMILES: C[N+](C)(C)C[C@H](O)CC(=O)[O-].O=C(O)/C=C/C(=O)O [L-carnitine fumarate]
- time at which plasma carnitine level peaked after OCCT (three tablets of L-carnitine fumarate (GNC, approximately 1200 mg L-carnitine) orally): 4 h
- plasma TMA level after OCCT [1]: very low concentration
- plasma γ-butyrobetaine level after OCCT [1]: very low concentration
